# Literature values as cited in patent publication US20090298951A1, “Nontoxic Biocidal Composition And Method Thereof” (priority 2008, published 2009).
# Conditions: 20° C.
smiles,measurement,value
"C/C=C/C=C/C(=O)[O-].[K+] [potassium sorbate, potassium (E,E)-hexa-2,4-dienoate]",soluble in water,58.2%
